Measurements: publication PMC3914206

Experiments:
Format in all cases: binding
[1] = biological target: T1, panel of 442 kinases (Homo sapiens, UniProt P08922); settings: Compound Concentration 10 µM
T1 construct: purchased KINOMEscan
Source text: (§1) We assessed the selectivity of members of this scaffold using the KINOMEscan methodology across a near comprehensive panel of 442 kinases [[18,27]].

[2] = biological target: T2, panel of 442 kinases (Homo sapiens, UniProt O15530); settings: Compound Concentration 10 µM
T2 construct: purchased KINOMEscan
T2 sequence (O15530 1-556): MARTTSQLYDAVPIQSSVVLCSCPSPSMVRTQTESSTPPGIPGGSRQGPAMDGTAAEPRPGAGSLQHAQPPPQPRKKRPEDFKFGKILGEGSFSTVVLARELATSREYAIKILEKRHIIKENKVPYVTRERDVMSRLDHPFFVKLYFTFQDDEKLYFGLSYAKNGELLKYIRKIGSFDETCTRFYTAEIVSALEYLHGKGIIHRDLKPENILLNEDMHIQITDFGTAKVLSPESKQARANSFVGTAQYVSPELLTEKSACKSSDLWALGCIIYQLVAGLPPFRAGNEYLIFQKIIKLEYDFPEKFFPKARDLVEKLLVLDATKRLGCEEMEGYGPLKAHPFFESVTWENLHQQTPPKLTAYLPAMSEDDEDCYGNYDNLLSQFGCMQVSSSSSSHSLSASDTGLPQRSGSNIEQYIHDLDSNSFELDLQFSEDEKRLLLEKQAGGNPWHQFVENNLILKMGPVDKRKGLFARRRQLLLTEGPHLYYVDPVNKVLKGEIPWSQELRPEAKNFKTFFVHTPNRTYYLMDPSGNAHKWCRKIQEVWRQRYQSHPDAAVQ
Source text: as §1

[3] = biological target: T3, panel of 442 kinases (Homo sapiens, UniProt Q9BYT3); settings: kinase STK33; compound concentration 10 µM
T3 construct: purchased KINOMEscan
Source text: as §1

T3 sequence (Q9BYT3 whole entry): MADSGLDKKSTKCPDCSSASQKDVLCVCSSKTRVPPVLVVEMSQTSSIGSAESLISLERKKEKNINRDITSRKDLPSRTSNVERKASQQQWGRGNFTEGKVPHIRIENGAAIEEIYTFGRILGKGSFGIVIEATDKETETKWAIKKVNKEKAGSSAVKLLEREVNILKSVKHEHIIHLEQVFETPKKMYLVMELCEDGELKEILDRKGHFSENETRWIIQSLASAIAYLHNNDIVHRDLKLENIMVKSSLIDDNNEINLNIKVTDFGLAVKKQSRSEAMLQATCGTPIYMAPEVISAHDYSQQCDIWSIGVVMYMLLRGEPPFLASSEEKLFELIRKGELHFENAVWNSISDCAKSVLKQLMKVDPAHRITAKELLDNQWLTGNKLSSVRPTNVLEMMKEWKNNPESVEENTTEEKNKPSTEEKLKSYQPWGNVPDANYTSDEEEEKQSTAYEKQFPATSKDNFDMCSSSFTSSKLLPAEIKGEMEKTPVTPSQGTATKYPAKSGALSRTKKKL
T1 sequence (P08922 28-2347): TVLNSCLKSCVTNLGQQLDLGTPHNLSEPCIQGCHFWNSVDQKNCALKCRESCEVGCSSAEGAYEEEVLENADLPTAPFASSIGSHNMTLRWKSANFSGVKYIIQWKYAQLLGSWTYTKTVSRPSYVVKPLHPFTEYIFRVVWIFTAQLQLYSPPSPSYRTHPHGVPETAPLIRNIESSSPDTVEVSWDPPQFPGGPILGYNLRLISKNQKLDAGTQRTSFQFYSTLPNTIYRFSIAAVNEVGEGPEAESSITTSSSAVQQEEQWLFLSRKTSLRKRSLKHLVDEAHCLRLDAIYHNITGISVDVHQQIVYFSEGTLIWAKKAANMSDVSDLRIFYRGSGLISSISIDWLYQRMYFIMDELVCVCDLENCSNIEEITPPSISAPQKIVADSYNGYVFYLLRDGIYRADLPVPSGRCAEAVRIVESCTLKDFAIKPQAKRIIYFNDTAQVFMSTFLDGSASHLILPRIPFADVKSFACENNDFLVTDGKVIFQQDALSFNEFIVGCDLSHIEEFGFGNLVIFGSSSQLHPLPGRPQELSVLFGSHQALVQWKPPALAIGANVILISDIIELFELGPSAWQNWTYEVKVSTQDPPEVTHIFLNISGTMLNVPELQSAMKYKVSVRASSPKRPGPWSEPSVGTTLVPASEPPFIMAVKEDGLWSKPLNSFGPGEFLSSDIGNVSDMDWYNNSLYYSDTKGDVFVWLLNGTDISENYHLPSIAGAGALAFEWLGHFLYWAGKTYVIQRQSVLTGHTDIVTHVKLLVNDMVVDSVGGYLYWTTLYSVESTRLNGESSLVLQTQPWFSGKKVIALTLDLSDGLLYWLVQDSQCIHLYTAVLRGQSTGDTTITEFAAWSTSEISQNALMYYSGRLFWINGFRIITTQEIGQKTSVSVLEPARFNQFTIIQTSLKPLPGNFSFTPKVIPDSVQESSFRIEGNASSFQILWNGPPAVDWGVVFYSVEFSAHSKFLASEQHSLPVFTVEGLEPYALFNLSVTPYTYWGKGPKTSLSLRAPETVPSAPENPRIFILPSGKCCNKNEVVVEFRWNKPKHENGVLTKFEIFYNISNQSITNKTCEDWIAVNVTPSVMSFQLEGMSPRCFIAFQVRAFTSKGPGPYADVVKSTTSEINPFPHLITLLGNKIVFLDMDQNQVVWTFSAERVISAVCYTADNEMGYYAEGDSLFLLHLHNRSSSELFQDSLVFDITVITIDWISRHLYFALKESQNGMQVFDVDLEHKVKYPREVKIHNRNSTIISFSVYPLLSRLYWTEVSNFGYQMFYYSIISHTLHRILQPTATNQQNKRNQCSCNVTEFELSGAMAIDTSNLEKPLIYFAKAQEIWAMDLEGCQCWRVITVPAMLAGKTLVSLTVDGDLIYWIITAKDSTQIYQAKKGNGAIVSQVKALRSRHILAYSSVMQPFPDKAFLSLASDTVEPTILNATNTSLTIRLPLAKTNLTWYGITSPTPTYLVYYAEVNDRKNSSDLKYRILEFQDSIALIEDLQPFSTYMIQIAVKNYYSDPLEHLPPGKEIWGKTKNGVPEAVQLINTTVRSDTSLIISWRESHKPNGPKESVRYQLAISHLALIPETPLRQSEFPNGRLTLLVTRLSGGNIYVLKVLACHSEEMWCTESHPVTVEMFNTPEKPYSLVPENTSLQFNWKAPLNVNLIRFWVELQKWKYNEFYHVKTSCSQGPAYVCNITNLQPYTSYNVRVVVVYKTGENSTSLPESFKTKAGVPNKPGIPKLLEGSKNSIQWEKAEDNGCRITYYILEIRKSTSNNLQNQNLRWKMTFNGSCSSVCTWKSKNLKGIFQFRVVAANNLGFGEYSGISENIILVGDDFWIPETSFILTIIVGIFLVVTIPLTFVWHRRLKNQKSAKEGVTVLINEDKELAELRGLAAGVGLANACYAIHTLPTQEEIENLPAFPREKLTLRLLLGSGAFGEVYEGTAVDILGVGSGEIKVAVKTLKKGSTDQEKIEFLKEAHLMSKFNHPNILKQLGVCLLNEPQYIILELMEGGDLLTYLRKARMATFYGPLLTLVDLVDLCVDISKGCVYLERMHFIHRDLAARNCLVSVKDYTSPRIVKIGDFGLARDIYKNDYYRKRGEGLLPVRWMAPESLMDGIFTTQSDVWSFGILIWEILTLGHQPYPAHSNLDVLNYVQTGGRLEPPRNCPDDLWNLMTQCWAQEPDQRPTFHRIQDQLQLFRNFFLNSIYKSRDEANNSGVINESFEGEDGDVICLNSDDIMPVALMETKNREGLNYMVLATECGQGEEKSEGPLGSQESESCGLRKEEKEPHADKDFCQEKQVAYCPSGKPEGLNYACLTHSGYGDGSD

Row | Compound | KINOMEscan: ROS1 [1] | KINOMEscan: PDPK1 [2] | % Ctrl, STK33 [3] [% Ctrl]
1 | COc1cc(C(=O)N2CCC(N3CCN(C)CC3)CC2)ccc1Nc1ncc2c(n1)N1CCc3cccc(c31)C(=O)N2C [Compound 24] | 24 |  | 
2 | CCOc1cc(C(=O)N2CCC(N3CCN(C)CC3)CC2)ccc1Nc1ncc2c(n1)N(C1CCCC1)c1ccccc1C(=O)N2C [Compound 26] | 20 | 99 | 100
3 | COc1cc(C(=O)N2CCC(N3CCN(C)CC3)CC2)ccc1Nc1ncc2c(n1)N(C1CCCC1)c1ccccc1C(=O)N2C [Compound 25, 11-cyclopentyl-2-((2-methoxy-4-(4-(4-methylpiperazin-1-yl)piperidine-1-carbonyl)phenyl)amino)-5-methyl-5H-benzo[e]pyrimido[5,4-b][1,4]diazepin-6(11H)-one] | 3.4 | 98 | 81
4 | COc1cc(C(=O)N2CCC(N3CCN(C)CC3)CC2)ccc1Nc1ncc2c(n1)N(C)c1ccccc1C(=O)N2C [15 (LRRK2-IN-1)] | 12 | 100 | 10
